# Experimental data reported in ChEMBL document CHEMBL4371020, “Synthesis and biological evaluation of 1H-pyrrolo[2,3-d]pyrimidine-1,2,3-triazole derivatives as novel anti-tubercular agents” (2019).
# Test system: Mycobacterium tuberculosis
# Assay: Antimicrobial activity against Mycobacterium tuberculosis H37Rv after 7 days by microplate alamar blue assay
# Assay type: functional
# Conditions: 168 h
row,Compound,MIC [µg/mL]
1,c1ccc(-c2cc(Cn3cc(Cn4ccc5cncnc54)nn3)on2)cc1,0.78
2,Fc1ccc(-c2cc(Cn3cc(Cn4ccc5cncnc54)nn3)on2)cc1,0.78
3,c1ccc(Sc2ccccc2-n2cc(Cn3ccc4cncnc43)nn2)cc1,6.25
4,Fc1ccc(Cn2cc(Cn3ccc4cncnc43)nn2)cc1,> 25
5,O=[N+]([O-])c1ccc(Cn2cc(Cn3ccc4cncnc43)nn2)cc1,> 25
6,Brc1ccccc1Cn1cc(Cn2ccc3cncnc32)nn1,> 25
7,COc1cccc(-n2cc(Cn3ccc4cncnc43)nn2)c1[N+](=O)[O-],25
8,Fc1ccc(Oc2ccc(Cn3cc(Cn4ccc5cncnc54)nn3)cc2)cc1,3.12
9,O=c1oc2ccccc2cc1-n1cc(Cn2ccc3cncnc32)nn1,3.12
10,COc1ccc(Cn2cc(Cn3ccc4cncnc43)nn2)cc1,> 25
11,Oc1ccccc1-n1cc(Cn2ccc3cncnc32)nn1,6.25
12,CCOC(=O)/C=C/Cn1cc(Cn2ccc3cncnc32)nn1,> 25
13,c1ccc(Cn2cc(Cn3ccc4cncnc43)nn2)cc1,> 25
14,Fc1ccccc1Cn1cc(Cn2ccc3cncnc32)nn1,> 25
15,Clc1ccc(Cn2cc(Cn3ccc4cncnc43)nn2)cc1,3.12
16,C=CCn1cc(Cn2ccc3cncnc32)nn1,6.25
17,O=[N+]([O-])c1ccc(-n2cc(Cn3ccc4cncnc43)nn2)cc1,> 25
18,Cc1onc(-c2ccccc2)c1Cn1cc(Cn2ccc3cncnc32)nn1,6.25
19,Clc1ccc(Oc2ccccc2)cc1-n1cc(Cn2ccc3cncnc32)nn1,6.25
20,COC(=O)CCn1cc(Cn2ccc3cncnc32)nn1,1.56
21,c1ccc(-c2cc(Cn3cc(Cn4ccc5cncnc54)nn3)cc(-c3ccccc3)n2)cc1,6.25
22,Fc1cccc(-n2cc(Cn3ccc4cncnc43)nn2)c1,> 25
23,Brc1ccc(Cn2cc(Cn3ccc4cncnc43)nn2)cc1,> 25
24,Clc1ccc(-n2cc(Cn3ccc4cncnc43)nn2)cc1,25
25,O=C(O)c1cn(C2CC2)c2cc(N3CCNCC3)c(F)cc2c1=O [CIPROFLOXACIN],1.56
26,CC[C@@H](CO)NCCN[C@@H](CC)CO [ETHAMBUTOL],1.56
27,NNC(=O)c1ccncc1 [ISONIAZID],0.1
28,CO[C@H]1/C=C/O[C@@]2(C)Oc3c(C)c(O)c4c(O)c(c(/C=N/N5CCN(C)CC5)c(O)c4c3C2=O)NC(=O)/C(C)=C\C=C\[C@H](C)[C@H](O)[C@@H](C)[C@@H](O)[C@@H](C)[C@H](OC(C)=O)[C@@H]1C [RIFAMPIN],0.2
